According to patent publication US11123683B2, “Carbon dioxide absorbent and apparatus of separating and recovering carbon dioxide” (Kabushiki Kaisha Toshiba, priority 2017, dated 2021):

Experiment: pKa of amino group of the heterocyclic ring
Format: physicochemical
Conditions: amino group in heterocyclic ring

## O=C1CNCC(=O)N1 [2,6-piperazinedione]
  pKa: 4.3

## CN1CC(CO)NCC1=O (stereo not drawn) [5-hydroxymethyl-1-methyl-2-piperazinone]
  pKa: 6.6

## CC(=O)CN1CCNCC1 [1-(1-piperazinyl)-2-propanone]
  pKa: 9.1
